{"source": "paper PMC3364120", "about": "(British Journal of Cancer, 2012)", "key": {"OCT-1 [1]": {"target": "T1, OCT-1 (Homo sapiens, UniProt O15245)", "T1 sequence (O15245 1-554)": "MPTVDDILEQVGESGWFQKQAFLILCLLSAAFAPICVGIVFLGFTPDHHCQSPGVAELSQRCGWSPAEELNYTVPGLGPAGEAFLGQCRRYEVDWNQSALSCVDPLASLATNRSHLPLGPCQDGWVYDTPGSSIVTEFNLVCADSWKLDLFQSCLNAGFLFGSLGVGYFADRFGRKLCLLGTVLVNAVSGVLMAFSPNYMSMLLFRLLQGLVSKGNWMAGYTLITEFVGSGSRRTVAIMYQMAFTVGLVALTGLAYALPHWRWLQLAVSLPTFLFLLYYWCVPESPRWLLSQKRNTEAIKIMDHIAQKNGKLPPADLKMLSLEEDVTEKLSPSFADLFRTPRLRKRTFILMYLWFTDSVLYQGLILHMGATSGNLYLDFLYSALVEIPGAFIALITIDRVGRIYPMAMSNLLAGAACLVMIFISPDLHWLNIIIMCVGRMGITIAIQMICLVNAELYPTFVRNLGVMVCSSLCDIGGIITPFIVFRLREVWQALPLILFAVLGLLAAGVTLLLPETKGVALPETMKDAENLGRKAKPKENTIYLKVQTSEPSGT", "assay": "OCT-1 activity", "type": "cell-based", "conditions": "K562; for change in OA / imatinib uptake via OCT-1: NSAID at concentration of Supplementary Table 1, 2 h"}, "OCT-1 [2]": {"target": "T1, OCT-1", "assay": "OCT-1 activity", "type": "cell-based", "conditions": "KU812"}, "OCT-1 [3]": {"target": "T1, OCT-1", "assay": "OCT-1 activity", "type": "cell-based", "conditions": "MNCs from normal individuals"}, "K562 cells": {"test_system": "K562 cells", "assay": "Trypan blue exclusion assay, viable cell number, K562", "type": "cell-based, human", "conditions": "for number of viable cells: 72 hours"}, "KU812 cells": {"test_system": "KU812 cells", "assay": "Trypan blue exclusion assay, viable cell number, KU812", "type": "cell-based, human", "conditions": "for number of viable cells: 72 hours"}, "OCT-1 [4]": {"target": "T1, OCT-1", "assay": "OCT-1 activity", "type": "cell-based"}, "OCT-1 mRNA [5]": {"test_system": "OCT-1 mRNA", "assay": "RQ-PCR for OCT-1 mRNA levels, K562", "type": "cell-based, human", "conditions": "2-hour incubation (data not shown)"}, "[6]": {"conditions": "ref Siu et al, 2000; Juhlin et al, 2004; Bramlage and Goldis, 2008; cited from earlier work"}, "hOCT-1": {"test_system": "hOCT-1", "conditions": "0.5 mM NSAID; transfected S2 cells expressing hOCT-1; ref Khamdang et al, 2002; cited from earlier work"}, "OCT-1 mRNA [7]": {"test_system": "OCT-1 mRNA", "assay": "RQ-PCR for OCT-1 mRNA levels, KU812", "type": "cell-based, human", "conditions": "2-hour incubation (data not shown)"}, "[8]": {"test_system": "chronic myeloid leukaemia", "conditions": "7-year update of IRIS; ref Hughes et al, 2010; cited from earlier work"}, "[9]": {"test_system": "chronic myeloid leukaemia", "conditions": "imatinib 600 mg per day, ref White et al, 2007b, cited from earlier work"}}, "note": "Like-named read-outs stand apart in the source and are kept apart here.", "data": [{"smiles": "Cc1ccc(-c2cc(C(F)(F)F)nn2-c2ccc(S(N)(=O)=O)cc2)cc1", "note": "[celecoxib]", "values": [{"measurement": "change in OA / imatinib uptake via OCT-1", "setting": "OCT-1 [1]", "value": "no significant impact"}, {"measurement": "change in imatinib uptake via OCT-1", "setting": "OCT-1 [2]", "value": "no significant impact"}]}, {"smiles": "O=C(O)Cc1ccccc1Nc1c(Cl)cccc1Cl", "note": "[diclofenac]", "values": [{"measurement": "change in OA", "setting": "OCT-1 [3]; n=10, diclofenac (data not shown)", "value": "did not result in a significant change"}, {"measurement": "number of viable cells", "setting": "K562 cells; 10 μM diclofenac + […] imatinib", "value": "7.82±0.56 × 10^5 ml^−1"}, {"measurement": "change in cell viability", "setting": "K562 cells; diclofenac alone, no imatinib", "value": "no significant change"}, {"measurement": "number of viable cells", "setting": "KU812 cells; 10 μM diclofenac + 0.05 μM imatinib", "value": "5.40±0.34 × 10^5 ml^−1"}, {"measurement": "change in cell viability", "setting": "KU812 cells; diclofenac alone, no imatinib", "value": "no significant change"}, {"measurement": "cases moved from Q1 to a higher OA quartile group", "setting": "OCT-1 [4]; 15 of 29 Q1 cases, 10 μM diclofenac", "value": 51.7, "unit": "%"}, {"measurement": "percentage of Q1 patients' samples in which OA was increased", "setting": "OCT-1 [4]; CML MNCs with basal OA <4 ng per 200 000 cells (Q1), n=29, 10 μM diclofenac", "value": 93, "unit": "%"}, {"measurement": "median OA in the presence of diclofenac", "setting": "OCT-1 [4]; patients with basal OA >4 ng per 200 000 cells, n=21, 10 μM diclofenac, 5.49 without, not significant (P=0.714)", "value": 5.92, "unit": "ng per 200 000cells"}, {"measurement": "change in level of OCT-1 mRNA", "setting": "OCT-1 mRNA [5]", "value": "no significant change"}, {"measurement": "clinically achievable total plasma concentration", "setting": "[6]", "value": 10, "unit": "µM"}, {"measurement": "effect on OCT-1-mediated TEA uptake", "setting": "hOCT-1", "value": "significantly inhibit"}, {"measurement": "change in level of OCT-1 mRNA", "setting": "OCT-1 mRNA [7]", "value": "no significant change"}]}, {"smiles": "CC(C)Cc1ccc(C(C)C(=O)O)cc1", "note": "(centres unmarked) [ibuprofen]", "values": [{"measurement": "decrease in OA", "setting": "OCT-1 [3]; n=6, ibuprofen", "value": 50, "unit": "%"}, {"measurement": "range of OA post treatment", "setting": "OCT-1 [3]; n=6, ibuprofen", "value": "1.41–2.82 ng per 200 000 cells"}, {"measurement": "OA post treatment", "setting": "OCT-1 [3]; n=6, ibuprofen, 3.70±0.45 before", "value": "1.83±0.26", "unit": "ng per 200 000 cells"}, {"measurement": "number of viable cells", "setting": "K562 cells; 145 μM ibuprofen + 0.5 μM imatinib", "value": "8.16±1.01 × 10^5 ml^−1"}, {"measurement": "number of viable cells", "setting": "KU812 cells; 145 μM ibuprofen + 0.1 μM imatinib", "value": "7.23±0.78 × 10^5 ml^−1"}, {"measurement": "reduction in OA", "setting": "OCT-1 [4]; CP-CML MNCs, 12 cases, 145 μM ibuprofen", "value": 41, "unit": "%"}, {"measurement": "range of OA after treatment", "setting": "OCT-1 [4]; CP-CML MNCs, n=12, 145 μM ibuprofen", "value": "1.53–7.85 ng per 200 000 cells"}, {"measurement": "average OA after treatment", "setting": "OCT-1 [4]; CP-CML MNCs, n=12, 145 μM ibuprofen, 7.53±0.82 before", "value": "4.30±0.52", "unit": "ng per 200 000 cells"}, {"measurement": "change in level of OCT-1 mRNA", "setting": "OCT-1 mRNA [5]", "value": "no significant change"}, {"measurement": "effect on OCT-1-mediated TEA uptake", "setting": "hOCT-1", "value": "significantly inhibit"}, {"measurement": "change in level of OCT-1 mRNA", "setting": "OCT-1 mRNA [7]", "value": "no significant change"}, {"measurement": "OA, % of vehicle control", "setting": "OCT-1 [1]; 145 μM ibuprofen, 2 h", "value": 48, "unit": "%"}, {"measurement": "OA, % of vehicle control", "setting": "OCT-1 [2]; 145 μM ibuprofen, 2 h", "value": 59, "unit": "%"}]}, {"smiles": "Cc1ccc(NC(=O)c2ccc(CN3CCN(C)CC3)cc2)cc1Nc1nccc(-c2cccnc2)n1", "note": "[imatinib]", "values": [{"measurement": "number of viable cells", "setting": "K562 cells; 0.5 μM imatinib alone", "value": "4.88±0.96 × 10^5 ml^−1"}, {"measurement": "number of viable cells", "setting": "KU812 cells; 0.05 μM imatinib alone", "value": "8.40±0.74 × 10^5 ml^−1"}, {"measurement": "number of viable cells", "setting": "KU812 cells; 0.1 μM imatinib alone", "value": "4.97±0.47 × 10^5 ml^−1"}, {"measurement": "overall event-free survival", "setting": "[8]", "value": 81, "unit": "%"}, {"measurement": "transformation-free survival (to accelerated phase/blast crisis)", "setting": "[8]", "value": 93, "unit": "%"}, {"measurement": "percentage of patients achieving major molecular response (MMR) by 24 months", "setting": "[9]; patients with high OA", "value": 85, "unit": "%"}, {"measurement": "percentage of patients achieving major molecular response (MMR) by 24 months", "setting": "[9]; patients with low OA", "value": 45, "unit": "%"}]}, {"smiles": "COc1ccc2c(c1)c(CC(=O)O)c(C)n2C(=O)c1ccc(Cl)cc1", "note": "[indomethacin]", "values": [{"measurement": "effect on OCT-1-mediated TEA uptake", "setting": "hOCT-1", "value": "significantly inhibit"}]}, {"smiles": "CS(=O)(=O)c1ccc(C2=C(c3ccccc3)C(=O)OC2)cc1", "note": "[rofecoxib]", "values": [{"measurement": "change in OA / imatinib uptake via OCT-1", "setting": "OCT-1 [1]", "value": "no significant impact"}, {"measurement": "change in imatinib uptake via OCT-1", "setting": "OCT-1 [2]", "value": "no significant impact"}]}, {"smiles": "CC1=C(CC(=O)O)c2cc(F)ccc2/C1=C\\c1ccc([S+](C)[O-])cc1", "note": "(centres unmarked) [sulindac]", "values": [{"measurement": "effect on OCT-1-mediated TEA uptake", "setting": "hOCT-1", "value": "significantly inhibit"}]}]}
